Measured values published in PubChem BioAssay AID1918996 (Molecular Pharmacology Branch, DTP, NCI, 2023).
Values joined by “and” are separate entries in the source; they are usually repeats but may differ in a detail not shown here. Equal entries are not always repeated.

Tested on: 349418-098-R-PDC complex spheroid growth
Experiment: Anticancer human tumor 349418-098-R-PDC patient-derived lung adenocarcinoma cell line growth inhibition [AhR]
Details: for viability, T/C: stronger effect = lower value
In short: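 Agents were dosed in half-log steps down from roughly clinical Cmax, or from 10 microM where Cmax was unknown, alone and with AhR antagonists. Read-out: percent test/control growth of tumor spheroids containing HUVEC and MSC stromal cells.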

[1] = curve of first compound, second compound 0.1 µM
[2] = curve of first compound, second compound 0.316 µM
[3] = curve of first compound, second compound 1 µM
[4] = curve of first compound, second compound 3.16 µM
[5] = curve of first compound, second compound 10 µM
[6] = second compound 0.1 µM, first compound 0.0316 µM
[7] = second compound 0.1 µM, first compound 0.1 µM
[8] = second compound 0.1 µM, first compound 0.316 µM
[9] = second compound 0.1 µM, first compound 1 µM
[10] = second compound 0.1 µM, first compound 3.16 µM
[11] = second compound 0.1 µM, first compound 10 µM
[12] = second compound 0.316 µM, first compound 0.0316 µM
[13] = second compound 0.316 µM, first compound 0.1 µM
[14] = second compound 0.316 µM, first compound 0.316 µM
[15] = second compound 0.316 µM, first compound 1 µM
[16] = second compound 0.316 µM, first compound 3.16 µM
[17] = second compound 0.316 µM, first compound 10 µM
[18] = second compound 1 µM, first compound 0.0316 µM
[19] = second compound 1 µM, first compound 0.1 µM
[20] = second compound 1 µM, first compound 0.316 µM
[21] = second compound 1 µM, first compound 1 µM
[22] = second compound 1 µM, first compound 3.16 µM
[23] = second compound 1 µM, first compound 10 µM
[24] = second compound 3.16 µM, first compound 0.0316 µM
[25] = second compound 3.16 µM, first compound 0.1 µM
[26] = second compound 3.16 µM, first compound 0.316 µM
[27] = second compound 3.16 µM, first compound 1 µM
[28] = second compound 3.16 µM, first compound 3.16 µM
[29] = second compound 3.16 µM, first compound 10 µM
[30] = second compound 10 µM, first compound 0.0316 µM
[31] = second compound 10 µM, first compound 0.1 µM
[32] = second compound 10 µM, first compound 0.316 µM
[33] = second compound 10 µM, first compound 1 µM
[34] = second compound 10 µM, first compound 3.16 µM
[35] = second compound 10 µM, first compound 10 µM
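Also: spheroids exposed to agents for seven days before luminescence viability read.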
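For viability, T/C in this document: spheroids also contain HUVEC endothelial cells and human MSC stroma.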

Compound | IC50 [1] [nM] | IC50 [2] [nM] | IC50 [3] [nM] | IC50 [4] [nM] | IC50 [5] [nM] | viability, T/C [6] [%] | viability, T/C [7] [%] | viability, T/C [8] [%] | viability, T/C [9] [%] | viability, T/C [12] [%] | viability, T/C [13] [%] | viability, T/C [14] [%] | viability, T/C [15] [%] | viability, T/C [18] [%] | viability, T/C [19] [%] | viability, T/C [20] [%] | viability, T/C [21] [%] | viability, T/C [24] [%] | viability, T/C [25] [%] | viability, T/C [26] [%] | other results
CC[C@@]1(O)C(=O)OCc2c1cc1n(c2=O)Cc2cc3c(CN(C)C)c(O)ccc3nc2-1 |  |  |  |  |  |  |  |  |  |  |  |  |  |  |  |  |  |  |  |  | viability, T/C (compound 0.000316 µM): 94.4% and 113% and 119%; viability, T/C (compound 0.001 µM): 97.3% and 89.4% and 89.3%; viability, T/C (compound 0.00316 µM): 93.6% and 63.5% and 81.3%; viability, T/C (compound 0.01 µM): 84.2% and 87.1% and 64%; viability, T/C (compound 0.0316 µM): 43.4% and 42.2% and 21.3%; viability, T/C (compound 0.1 µM): 15.3% and 21.5% and 13.5%; IC50 (curve of compound): 26.2 nM and 25.8 nM and 12.9 nM
COc1cc(Nc2ncc3c(n2)-c2ccc(Cl)cc2C(c2c(F)cccc2OC)=NC3)ccc1C(=O)O + Cc1cncc(-c2nc(NCCc3c[nH]c4ccccc34)c3ncn(C(C)C)c3n2)c1 | 195 | 242 | 267 | < 31.6 | < 31.6 | 68.8 | 58.2 | 42.4 | 40.8 | 72.6 | 68.6 | 44.4 | 47.8 | 67.7 | 57.3 | 46.7 | 48.8 | 19.7 | 20 | 14.1 | viability, T/C [10]: 36.3%; viability, T/C [11]: 33.1%; viability, T/C [16]: 41.1%; viability, T/C [17]: 43.9%; viability, T/C [22]: 40.3%; viability, T/C [23]: 44.8%; viability, T/C [27]: 12.7%; viability, T/C [28]: 14.7%; viability, T/C [29]: 17.9%; viability, T/C [30]: 3.34%; viability, T/C [31]: 2.89%; viability, T/C [32]: 2.53%; viability, T/C [33]: 2.17%; viability, T/C [34]: 2.59%; viability, T/C [35]: 3.53%
CC(C)c1c(-c2ccccc2)nc2c(C#N)c[nH]n2c1=O + CC(CO)NC(=O)c1cc(-c2ccc(Cl)cc2)nn(-c2cnn(C)c2)c1=O | > 10000 | > 10000 | > 10000 | > 10000 | 170 | 91.8 | 66.8 | 98.2 | 68.5 | 66.9 | 93.3 | 67.7 | 78.7 | 91.3 | 70.7 | 88.3 | 67.1 | 70.3 | 86.2 | 71.8 | viability, T/C [10]: 77%; viability, T/C [11]: 78%; viability, T/C [16]: 85.7%; viability, T/C [17]: 60.8%; viability, T/C [22]: 58.2%; viability, T/C [23]: 70.3%; viability, T/C [27]: 77.2%; viability, T/C [28]: 56.4%; viability, T/C [29]: 60.4%; viability, T/C [30]: 54.3%; viability, T/C [31]: 55.3%; viability, T/C [32]: 46.5%; viability, T/C [33]: 45%; viability, T/C [34]: 43.6%; viability, T/C [35]: 45.5%
Nc1ncn(C2CC(O)C(CO)S2)c(=O)n1 (stereo unspecified) |  |  |  |  |  |  |  |  |  |  |  |  |  |  |  |  |  |  |  |  | viability, T/C (compound 0.000949 µM): 97.2% and 92.9% and 82.7%; viability, T/C (compound 0.003 µM): 99.2% and 94.3% and 81.9%; viability, T/C (compound 0.00949 µM): 96.8% and 87.4% and 85.6%; viability, T/C (compound 0.03 µM): 73.7% and 78.3% and 64.3%; viability, T/C (compound 0.0949 µM): 51.7% and 54.9% and 55.8%; viability, T/C (compound 0.3 µM): 29% and 31.2% and 26.1%; IC50 (curve of compound): 94.1 nM and 121 nM and 111 nM
CC1(C)CCC(CN2CCN(c3ccc(C(=O)NS(=O)(=O)c4ccc(NCC5CCOCC5)c([N+](=O)[O-])c4)c(Oc4cnc5[nH]ccc5c4)c3)CC2)=C(c2ccc(Cl)cc2)C1 |  |  |  |  |  |  |  |  |  |  |  |  |  |  |  |  |  |  |  |  | viability, T/C (compound 0.0316 µM): 97.2% and 117% and 104%; viability, T/C (compound 0.1 µM): 110% and 106% and 101%; viability, T/C (compound 0.316 µM): 102% and 92.4% and 105%; viability, T/C (compound 1 µM): 94.9% and 91.9% and 76.2%; viability, T/C (compound 3.16 µM): 106% and 100% and 68.8%; viability, T/C (compound 10 µM): 96.6% and 33.3% and 37.7%; IC50 (curve of compound): > 10000 nM and 7500 nM and 6060 nM
Nc1ccccc1NC(=O)c1ccc(CNC(=O)OCc2cccnc2)cc1 + Cc1ccccc1N=Nc1ccc(NC(=O)c2ccnn2C)c(C)c1 | 1260 | 999 | 992 | 1010 | 919 | 104 | 97.7 | 75.7 | 64.6 | 84.6 | 85.3 | 72 | 52.1 | 97.7 | 76 | 87.2 | 47.6 | 86.5 | 82.5 | 76.5 | viability, T/C [10]: 19.4%; viability, T/C [11]: 5.78%; viability, T/C [16]: 17.2%; viability, T/C [17]: 5.9%; viability, T/C [22]: 18.5%; viability, T/C [23]: 6.58%; viability, T/C [27]: 50.1%; viability, T/C [28]: 18.5%; viability, T/C [29]: 5.98%; viability, T/C [30]: 66.4%; viability, T/C [31]: 60.9%; viability, T/C [32]: 68.1%; viability, T/C [33]: 48%; viability, T/C [34]: 17%; viability, T/C [35]: 8.83%

Now from value to compound, other results behind:

IC50 [1] [nM] | IC50 [2] [nM] | IC50 [3] [nM] | IC50 [4] [nM] | IC50 [5] [nM] | Compound | viability, T/C [6] [%] | viability, T/C [7] [%] | viability, T/C [8] [%] | viability, T/C [9] [%] | viability, T/C [12] [%] | viability, T/C [13] [%] | viability, T/C [14] [%] | viability, T/C [15] [%] | viability, T/C [18] [%] | viability, T/C [19] [%] | viability, T/C [20] [%] | viability, T/C [21] [%] | viability, T/C [24] [%] | viability, T/C [25] [%] | viability, T/C [26] [%] | other results
188 | 149 | 107 | 49.4 | < 31.6 | NS(=O)(=O)OCC1CC(n2ccc3c(NC4CCc5ccccc54)ncnc32)CC1O (stereo unspecified) + CC(CO)NC(=O)c1cc(-c2ccc(Cl)cc2)nn(-c2cnn(C)c2)c1=O | 83.2 | 65.6 | 37.1 | 18.4 | 92.7 | 62.9 | 24.7 | 19.9 | 68.8 | 52.2 | 24.5 | 16.3 | 54.8 | 42.6 | 22.7 | viability, T/C [10]: 13.4%; viability, T/C [11]: 8.51%; viability, T/C [16]: 11.2%; viability, T/C [17]: 8.21%; viability, T/C [22]: 10.8%; viability, T/C [23]: 9.16%; viability, T/C [27]: 14.7%; viability, T/C [28]: 10.7%; viability, T/C [29]: 8.74%; viability, T/C [30]: 33.8%; viability, T/C [31]: 30.9%; viability, T/C [32]: 25.7%; viability, T/C [33]: 16.7%; viability, T/C [34]: 10.9%; viability, T/C [35]: 8.91%
177 | 221 | 305 | < 3.16 | < 3.16 | Nc1ncn(C2CC(O)C(CO)O2)c(=O)n1 (stereo unspecified) + Cc1cncc(-c2nc(NCCc3c[nH]c4ccccc34)c3ncn(C(C)C)c3n2)c1 | 80.3 | 59.9 | 40.9 | 29.1 | 83.2 | 69.9 | 40.7 | 25.7 | 82.7 | 68.6 | 50.1 | 34.3 | 21.9 | 17.4 | 17.7 | viability, T/C (second compound 0.1 µM, first compound 0.00316 µM): 88.5%; viability, T/C (second compound 0.1 µM, first compound 0.01 µM): 97.9%; viability, T/C (second compound 0.316 µM, first compound 0.00316 µM): 93%; viability, T/C (second compound 0.316 µM, first compound 0.01 µM): 88.3%; viability, T/C (second compound 1 µM, first compound 0.00316 µM): 84.6%; viability, T/C (second compound 1 µM, first compound 0.01 µM): 87.2%; viability, T/C (second compound 3.16 µM, first compound 0.00316 µM): 20.6%; viability, T/C (second compound 3.16 µM, first compound 0.01 µM): 21.6%; viability, T/C [27]: 16.2%; viability, T/C (second compound 10 µM, first compound 0.00316 µM): 1.51%; viability, T/C (second compound 10 µM, first compound 0.01 µM): 1.55%; viability, T/C [30]: 1.75%; viability, T/C [31]: 1.51%; viability, T/C [32]: 1.2%; viability, T/C [33]: 1.31%
